Measured values as given in patent US3980646A, “3-Methylpyrazole-5-carboxylates and medicaments containing these compounds” (Wulfing; Johann A., priority 1974, dated 1976).
Several values for one entry are separate records, joined by “and”; a condition that tells them apart may be missing. Equal values may be shown once.

Assays:
free fatty acids (FFS) [1] = assay: influence on the free fatty acids (FFS) in starved (hyperlipacidaemic) animals, hunger lipolysis; format: in vivo, rats (Wistar); conditions: starved
Protocol: Investigations on a total of 260 Wistarrats were conducted with 7-[3-(N-methyl-N-2-hydroxyethyl)-amino-2-hydroxypropyl]-1,3-dimethylxanthine-3-methylpyrazole-5-carboxylate.
Examination of the influence of 7-[3-(N-methyl-N-2-hydroxy-
ethyl)-amino-2-hydroxypropyl]-1,3-dimethylxanthine-3-methyl-
pyrazole-5-carboxylate on the serum fatty acids (FFS) of
Male Rats, starve for 17 hours
Dose: 100 mg/kg body weight, oral by esophagus probe,
Blood removal: 1 hour after application
pyrazole-5-carboxylate on the free fatty acids (FFS) in
starved animals 1 hour after application
Comparative examinations of the influence of 7-[3-(N-methyl-
carboxylic acid on the free fatty acids (FFS) in starved
animals 1 hour after application
pyrazole-5-carboxylic acid on the free fatty acids (FFS)
in starved animals 6 hours after application

serum triglycerides (TG) = assay: influence on the serum triglycerides (TG) in normal animals; format: in vivo, Rats (Wistar); conditions: for TG: starve for 5 hours; for TG, mean (x): 1 hour
Protocol: Rats, starve for 5 hours
40 mg/kg body weight of active principle according to
the invention, oral by esophagus probe 1 hour before
12 mg/kg body weight of 3-methylpyrazole-5-carboxylic
acid, equim. dosage, 1 hour before removal of blood
Dose: 10 mg/kg body weight of active principle according to the
invention, oral by esophagus probe 1 hour before blood removal
Dose: 3 mg/kg body weight of 3-methylpyrazole-5-carboxylic acid,
equim. dosage, oral by esophagus probe 1 hour before

free fatty acids (FFS) [2] = assay: influence on the free fatty acids (FFS) after repeated application once daily for 4 days; format: in vivo, Rats male (Wistar); conditions: for free fatty acids (FFS): individual animals, 15 mg/kg
Protocol: Rats male, repeated application once daily for 4 days,
on the 4th day groups of 10 animals were killed at
intervals of 30 minutes, 1 hour and 2 hours after the
last application by ether narcosis and heart puncture.
10 controls were given esophagus probe, animals starved
for 17 hours before killing (cf. FIG. 4)
7-[3-(N-methyl-2-hydroxyethyl)-amino-2-
hydroxypropyl]-1,3-dimethylxanthine-3-
methylpyrazole-5-carboxylate 50 mg/kg peroral
3-methylpyrazole-5-carboxylic acid (3-MPC)
eq./kg 15 mg/kg peroral

[3] = starving rats; David L. Smith et al; cited from earlier work
[4] = test system: free fatty acids and triglycerides in the serum; conditions: cited from earlier work
[5] = free acid, known per se; cited from earlier work

Structure (SMILES): Cc1cc(C(=O)O)[nH]n1 [3-methylpyrazole-5-carboxylic acid, reference compound]
- FFS (free fatty acids (FFS) [1]; Table 5, individual animals, 1 hour after application, 15 mg/kg): 0.41 μval/ml and 0.43 μval/ml and 0.59 μval/ml and 0.52 μval/ml and 0.67 μval/ml and 0.37 μval/ml and 0.40 μval/ml and 0.54 μval/ml and 0.44 μval/ml
- FFS, mean (free fatty acids (FFS) [1]; Table 5, mean, n=10, 1 hour after application, 15 mg/kg, control 1.08, p<0.001): 0.47 μval/ml
- FFS (free fatty acids (FFS) [1]; Table 6, individual animals, 6 hours after application, 15 mg/kg p.o., 15 mg/kg): 0.51 μval/ml and 0.50 μval/ml and 0.67 μval/ml and 0.64 μval/ml and 0.56 μval/ml and 0.53 μval/ml and 0.61 μval/ml and 0.85 μval/ml and 0.44 μval/ml and 0.54 μval/ml and 0.58 μval/ml and 1.00 μval/ml and 0.47 μval/ml and 1.46 μval/ml and 1.10 μval/ml
- FFS, mean (x) (free fatty acids (FFS) [1]; Table 6, mean, n=21, 6 hours after application, 15 mg/kg p.o., control 0.86, p<0.01): 0.69 μval/ml
- TG (serum triglycerides (TG); Table 7, individual animals, 12 mg/kg (equim. dosage) 1 hour before removal of blood, 12 mg/kg): 90.2 mg % and 87.3 mg % and 58.7 mg % and 107.4 mg % and 51.6 mg % and 55.8 mg % and 71.6 mg % and 60.1 mg % and 68.7 mg %
- TG, mean (x) (serum triglycerides (TG); Table 7, mean, 12 mg/kg (equim. dosage), control x = 66.4): 74.1 mg %
- TG (serum triglycerides (TG); Table 8, individual animals, 3 mg/kg (equim. dosage) oral 1 hour before blood removal, 3 mg/kg): 137.4 mg % and 87.3 mg % and 70.2 mg % and 74.4 mg % and 50.1 mg % and 43.0 mg % and 57.2 mg % and 51.5 mg % and 32.9 mg % and 73.0 mg %
- TG, mean (x) (serum triglycerides (TG); Table 8, mean, 3 mg/kg (equim. dosage) oral, control x = 86.3, p>0.05→Ko., p>0.05→xant.-carbox.): 67.7 mg %
- effect on serum triglyceride level of normal animals (serum triglycerides (TG); equimolecular doses of the free acid, result in words): relatively weak, i.e. insignificant effect
- free fatty acids (FFS) (free fatty acids (FFS) [2]; 15 mg/kg p.o. 4 × appl., 30' after last application): 0.66 μval/ml plasma and 0.59 μval/ml plasma and 0.53 μval/ml plasma and 0.91 μval/ml plasma and 0.56 μval/ml plasma and 0.95 μval/ml plasma and 1.02 μval/ml plasma and 0.81 μval/ml plasma and 0.80 μval/ml plasma and 0.60 μval/ml plasma
- free fatty acids (FFS) (free fatty acids (FFS) [2]; 15 mg/kg p.o. 4 × appl., 1 h after last application): 0.75 μval/ml plasma and 0.73 μval/ml plasma and 0.95 μval/ml plasma and 0.96 μval/ml plasma and 1.03 μval/ml plasma and 1.16 μval/ml plasma and 1.08 μval/ml plasma and 0.84 μval/ml plasma and 1.24 μval/ml plasma and 0.92 μval/ml plasma
- free fatty acids (FFS) (free fatty acids (FFS) [2]; 15 mg/kg p.o. 4 × appl., 2 h after last application): 0.62 μval/ml plasma and 0.59 μval/ml plasma and 0.51 μval/ml plasma and 0.70 μval/ml plasma and 0.88 μval/ml plasma and 0.84 μval/ml plasma and 1.27 μval/ml plasma and 1.20 μval/ml plasma and 0.86 μval/ml plasma
- free fatty acids (FFS), mean (x9) (free fatty acids (FFS) [2]; mean of 9, 15 mg/kg p.o. 4 × appl., 2 h after last application, control 1.27, p<0.001): 0.83 μval/ml plasma
- free fatty acids (FFS), mean (x10) (free fatty acids (FFS) [2]; 15 mg/kg p.o. 4 × appl., 30' after last application, control 1.27, p<0.001): 0.74 μval/ml plasma
- free fatty acids (FFS), mean (x10) (free fatty acids (FFS) [2]; 15 mg/kg p.o. 4 × appl., 1 h after last application, control 1.27, p<0.001): 0.97 μval/ml plasma
- weakening of effect on free fatty acid content by pretreatment (free fatty acids (FFS) [2]; repeated application, result in words): able to confirm the results of these tests
- hypoglycaemic activity relative to tolbutamide [3]: two hundred times
- tachyphylaxia ([4]; observed by the authors, limits its suitability for therapeutic application): tachyphylaxia
- effect of pretreatment on the free fatty acid content of the plasma ([4]; pretreatment 4 to 5 days, Gerritzen et al): weakens the effect on the free fatty acid content of the plasma
- level of free fatty acids and triglycerides in the serum ([4]; small doses, starving normal rats): reduces the level of free fatty acids and triglycerides in the serum
- lipid-lowering activity [5]: shows corresponding activity
